Reference: patent US20230255927A1 (ELANCO TIERGESUNDHEIT AG, priority 2022, published 2023)

Tested on: lactating dairy cows
Assay: New York/Cornell Study: dietary monensin fed to lactating dairy cows
Type: in vivo
Text: Lactating dairy cows were used for the instant example. Methods: One-hundred ninety-two lactating cows (120±50 DIM) were randomly assigned to 12 pens each including 16 cows.

SMILES: CC[C@@]1([C@@H]2O[C@@H]([C@H]3O[C@@](O)(CO)[C@H](C)C[C@@H]3C)C[C@@H]2C)CC[C@H]([C@]2(C)CC[C@]3(C[C@H](O)[C@@H](C)[C@@H]([C@@H](C)[C@@H](OC)[C@H](C)C(=O)O)O3)O2)O1 [monensin]
- DMI (R11, 11 g/ton): 59 lb/d
- ECM (R11, 11 g/ton): 103 lb/d
- Estimated Dietary Energy (R11, 11 g/ton): 1.65 Mcal/kg DM
- Milk Fat (R11, 11 g/ton): 4.67%
- Milk Yield (R11, 11 g/ton): 88 lb/d
- Protein (R11, 11 g/ton): 3.38%
- Energy-corrected milk (ECM) (R11 group, 11 g/ton): 46.9 kg/day
- Milk Yield (R11 group, 11 g/ton): 39.9 kg/day
- Milk fat yield (R11 group, 11 g/ton): 1.83 kg/day
- Milk protein yield (R11 group, 11 g/ton): 1.33 kg/day
- DMI (R14.5, 14.5 g/ton): 59 lb/d
- ECM (R14.5, 14.5 g/ton): 104 lb/d
- Estimated Dietary Energy (R14.5, 14.5 g/ton): 1.65 Mcal/kg DM
- Milk Fat (R14.5, 14.5 g/ton): 4.71%
- Milk Yield (R14.5, 14.5 g/ton): 87 lb/d
- Protein (R14.5, 14.5 g/ton): 3.37%
- Energy-corrected milk (ECM) (R14.5 group, 14.5 g/ton): 47.1 kg/day
- FA unsaturation compared to CON (R14.5 group, 14.5 g/ton): significantly reduced
- Milk Yield (R14.5 group, 14.5 g/ton): 39.7 kg/day
- Milk fat yield (R14.5 group, 14.5 g/ton): 1.85 kg/day
- Milk protein yield (R14.5 group, 14.5 g/ton): 1.33 kg/day
- DMI (R18, 18 g/ton): 61 lb/d
- ECM (R18, 18 g/ton): 103 lb/d
- Estimated Dietary Energy (R18, 18 g/ton): 1.68 Mcal/kg DM
- Milk Fat (R18, 18 g/ton): 4.67%
- Milk Yield (R18, 18 g/ton): 87 lb/d
- Protein (R18, 18 g/ton): 3.39%
- DMI (R18 group, 18 g/ton): increased numerically
- Energy-corrected milk (ECM) (R18 group, 18 g/ton): 46.8 kg/day
- FA unsaturation compared to CON (R18 group, 18 g/ton): significantly reduced
- Milk Yield (R18 group, 18 g/ton): 39.6 kg/day
- Milk fat yield (R18 group, 18 g/ton): 1.83 kg/day
- Milk protein yield (R18 group, 18 g/ton): 1.33 kg/day
- Milk fat percentage (all treatment groups): greater than 4.6%
- Milk true protein percent (all treatment groups): ≥ 3.35%
- Increase in ECM (increasing monensin supplementation, non-significant): 2%
